Common to all, as to settings: lowest concentration inhibiting 95% of growth (OD600); with BLi relebactam 4 μg/mL; 22 hours, 35±2° C.
Assay [1] concerns Pseudomonas aeruginosa expressing AmpC (CL5701). In words: Growth inhibitory concentration (OD600), P. aeruginosa CL5701. It counts as cell-based. As to the method: (§1) The concentrations of compounds required to inhibit the growth of various strains of bacteria were determined in an assay that assessed bacterial growth by measuring optical density at 600 nm (OD600). The bacterial strains tested included the clinical strains Escherichia co/i expressing NDM-1 (CLB30016), Klebsiella pneumoniae expressing KPC-1 (CL6569), Acinetobacter baumannii expressing TEM-1, AmpC, and Oxa-24/40 (CL6188) and Pseudomonas aeruginosa expressing AmpC (CL5701). All compounds were tested in the presence of a f3 lactamase inhibitor (BLi, Relebactam) in 384-well microplates.
(§2) The clinical strains were stored as frozen single use stocks, thawed and diluted into 1.1× cation-adjusted Mueller-Hinton 11 broth to achieve approximately 2×10^5 CFU/mL. Test compounds were dissolved in DMSO and diluted 1:50 in the assay, resulting in a final concentration range of 100 μM to 0.098 μM. On the day of the assay, 1 μL of test compound was added to the plate followed by 4 μL of 50 μg/mL BLi in MOPS buffer and 45 μL of diluted bacteria. Plates were centrifuged at 1000 rpm for 30 seconds, shaken at approximately 800 rpm for 1 minute, and incubated at 35±2° C. for 22 hours. The concentration of BLi used in the assay was 4 μg/mL. At the end of the incubation, absorbance at 600 nm was determined using a spectrophotometer. Inhibition was quantitated by identifying the lowest concentration of test compound that was required to inhibit […] of the growth of the bacteria.

The test system of assay [2] is Acinetobacter baumannii expressing TEM-1, AmpC, and Oxa-24/40 (CL6188). It counts as cell-based. Here is the method: as §1, §2
Assay [3] concerns Klebsiella pneumoniae expressing KPC-1 (CL6569). In words: Growth inhibitory concentration (OD600), K. pneumoniae CL6569. It counts as cell-based. As to the method:
as §1, §2

Assay [4] has as its system Escherichia co/i expressing NDM-1 (CLB30016). In words: Growth inhibitory concentration (OD600), E. coli CLB30016. The assay is classed as cell-based, Escherichia coli. As to the method:
as §1, §2

With `CC1(C)[C@H](NC(=O)/C(=N\O[C@](C)(C(=O)O)[C@H]2CCc3cc(C(=N)N[C@H]4C[C@]5(CCNC5)C4)ccc3O2)c2csc(N)n2)C(=O)N1OS(=O)(=O)O` [Compound 22, (S)-2-((R)-6-(N-((2r,4S)-6-azaspiro[3.4]octan-2-yl)carbamimidoyl)chroman-2-yl)-2-((((Z)-1-(2-aminothiazol-4-yl)-2-(((S)-2,2-dimethyl-4-oxo-1-(sulfooxy)azetidin-3-yl)amino)-2-oxoethylidene)amino)oxy)propanoic acid], the “PA_CL5701 MITC95” value in assay [1] amounted to 1.563 µM. Besides, in assay [2], the “AB_CL6188 MITC95” value worked out at 3.125 µM. Besides, in assay [3], the “KP_CL6569 MITC95” value is 0.3906 µM. Also, in assay [4], the “EC_CLB30016 MITC95” value was 3.125 µM.

Turning to `CC1(C)[C@H](NC(=O)/C(=N\O[C@](C)(C(=O)O)[C@H]2CCc3cc(C(=N)N[C@H]4CC[C@H](N)CC4)ccc3O2)c2csc(N)n2)C(=O)N1OS(=O)(=O)O` [Compound 32, (S)-2-((R)-6-(N-((1r,4R)-4-aminocyclohexyl)carbamimidoyl)chroman-2-yl)-2-((((Z)-1-(2-aminothiazol-4-yl)-2-(((S)-2,2-dimethyl-4-oxo-1-(sulfooxy)azetidin-3-yl)amino)-2-oxoethylidene)amino)oxy)propanoic acid], the “PA_CL5701 MITC95” value in assay [1] is 1.563 µM. Moreover, the “AB_CL6188 MITC95” value in assay [2] is 3.125 µM. In addition, in assay [3], the “KP_CL6569 MITC95” value amounted to 0.3906 µM. The “EC_CLB30016 MITC95” value in assay [4] stood at 3.125 µM.

In the case of `CC1(C)[C@H](NC(=O)/C(=N\O[C@](C)(C(=O)O)[C@H]2CCc3cc(C(=N)N[C@H]4CC[C@](O)(CN)CC4)ccc3O2)c2csc(N)n2)C(=O)N1OS(=O)(=O)O` [Compound 59, (S)-2-((R)-6-(N-((1s,4S)-4-(aminomethyl)-4-hydroxycyclohexyl)carbamimidoyl)chroman-2-yl)-2-((((Z)-1-(2-aminothiazol-4-yl)-2-(((S)-2,2-dimethyl-4-oxo-1-(sulfooxy)azetidin-3-yl)amino)-2-oxoethylidene)amino)oxy)propanoic acid], the “PA_CL5701 MITC95” value in assay [1] was 1.563 µM. Also, the “AB_CL6188 MITC95” value in assay [2] stood at 3.125 µM. The “KP_CL6569 MITC95” value in assay [3] amounted to 0.3906 µM. For the same compound, the “EC_CLB30016 MITC95” value in assay [4] was 12.5 µM.

For the compound `COCC[C@]1(N)CC[C@@H](NC(=N)c2ccc3c(c2)CC[C@H]([C@](C)(O/N=C(\C(=O)N[C@@H]2C(=O)N(OS(=O)(=O)O)C2(C)C)c2csc(N)n2)C(=O)O)O3)CC1` [Compound 63, (S)-2-((R)-6-(N-((1s,4S)-4-amino-4-(2-methoxyethyl)cyclohexyl)carbamimidoyl)chroman-2-yl)-2-((((Z)-1-(2-aminothiazol-4-yl)-2-(((S)-2,2-dimethyl-4-oxo-1-(sulfooxy)azetidin-3-yl)amino)-2-oxoethylidene)amino)oxy)propanoic acid], the “PA_CL5701 MITC95” value in assay [1] came to 3.125 µM. Besides, the “AB_CL6188 MITC95” value in assay [2] was 6.25 µM. The “KP_CL6569 MITC95” value in assay [3] amounted to 0.7813 µM. In addition, in assay [4], the “EC_CLB30016 MITC95” value was determined as 12.5 µM.

For `CC1(C)[C@H](NC(=O)/C(=N\O[C@](C)(C(=O)O)[C@H]2CCc3cc(C(=N)NC4CCC(N)(CO)CC4)ccc3O2)c2csc(N)n2)C(=O)N1OS(=O)(=O)O` (stereo partly drawn) [Compound 69, (S)-2-((R)-6-(N-((1r,4R)-4-amino-4-(hydroxymethyl)cyclohexyl)carbamimidoyl)chroman-2-yl)-2-((((Z)-1-(2-aminothiazol-4-yl)-2-(((S)-2,2-dimethyl-4-oxo-1-(sulfooxy)azetidin-3-yl)amino)-2-oxoethylidene)amino)oxy)propanoic acid], in assay [1], the “PA_CL5701 MITC95” value stood at 1.563 µM. Also, the “AB_CL6188 MITC95” value in assay [2] worked out at 4.688 µM. The “KP_CL6569 MITC95” value in assay [3] is 0.3906 µM. Besides, in assay [4], the “EC_CLB30016 MITC95” value was 6.25 µM.

As to `CC1(C)[C@H](NC(=O)/C(=N\O[C@](C)(C(=O)O)[C@H]2CCc3cc(C(=N)N[C@]4(C)CC[C@@H](N)CC4)ccc3O2)c2csc(N)n2)C(=O)N1OS(=O)(=O)O` [Compound 71, (S)-2-((R)-6-(N-((1r,4R)-4-amino-1-methylcyclohexyl)carbamimidoyl)chroman-2-yl)-2-((((Z)-1-(2-aminothiazol-4-yl)-2-(((S)-2,2-dimethyl-4-oxo-1-(sulfooxy)azetidin-3-yl)amino)-2-oxoethylidene)amino)oxy)propanoic acid], the “PA_CL5701 MITC95” value in assay [1] stood at 1.563 µM. The “AB_CL6188 MITC95” value in assay [2] was found to be 4.688 µM. Besides, in assay [3], the “KP_CL6569 MITC95” value worked out at 0.7813 µM. In addition, the “EC_CLB30016 MITC95” value in assay [4] amounted to 9.375 µM.

On to `CC1(C)[C@H](NC(=O)/C(=N\O[C@](C)(C(=O)O)[C@H]2CCc3cc(C(=N)N[C@H]4C[C@](CN)(CO)C4)ccc3O2)c2csc(N)n2)C(=O)N1OS(=O)(=O)O` [Compound 78, (S)-2-((R)-6-(N-((1r,3R)-3-(aminomethyl)-3-(hydroxymethyl)cyclobutyl)carbamimidoyl)chroman-2-yl)-2-((((Z)-1-(2-aminothiazol-4-yl)-2-(((S)-2,2-dimethyl-4-oxo-1-(sulfooxy)azetidin-3-yl)amino)-2-oxoethylidene)amino)oxy)propanoic acid], for which the “PA_CL5701 MITC95” value in assay [1] was 1.563 µM. Also, the “AB_CL6188 MITC95” value in assay [2] stood at 4.688 µM. In addition, the “KP_CL6569 MITC95” value in assay [3] was 0.3906 µM. For the same compound, in assay [4], the “EC_CLB30016 MITC95” value was determined as 6.25 µM.

As for `CC1(C)[C@H](NC(=O)/C(=N\O[C@](C)(C(=O)O)[C@H]2CCc3cc(C(=N)N[C@H]4C[C@](N)(CCO)C4)ccc3O2)c2csc(N)n2)C(=O)N1OS(=O)(=O)O` [Compound 86, (S)-2-((R)-6-(N-((1s,3S)-3-amino-3-(2-hydroxyethyl)cyclobutyl)carbamimidoyl)chroman-2-yl)-2-((((Z)-1-(2-aminothiazol-4-yl)-2-(((S)-2,2-dimethyl-4-oxo-1-(sulfooxy)azetidin-3-yl)amino)-2-oxoethylidene)amino)oxy)propanoic acid], the “PA_CL5701 MITC95” value in assay [1] amounted to 1.563 µM. Moreover, the “AB_CL6188 MITC95” value in assay [2] was determined as 6.25 µM. Moreover, in assay [3], the “KP_CL6569 MITC95” value stood at 0.3906 µM. Further, the “EC_CLB30016 MITC95” value in assay [4] came out at 6.25 µM.

For `CC1(C)[C@H](NC(=O)/C(=N\O[C@](C)(C(=O)O)[C@H]2CCc3cc(C(=N)N[C@H]4C[C@@](N)(CCO)C4)ccc3O2)c2csc(N)n2)C(=O)N1OS(=O)(=O)O` [Compound 87, (S)-2-((R)-6-(N-((1r,3R)-3-amino-3-(2-hydroxyethyl)cyclobutyl)carbamimidoyl)chroman-2-yl)-2-((((Z)-1-(2-aminothiazol-4-yl)-2-(((S)-2,2-dimethyl-4-oxo-1-(sulfooxy)azetidin-3-yl)amino)-2-oxoethylidene)amino)oxy)propanoic acid], the “PA_CL5701 MITC95” value in assay [1] was found to be 1.563 µM. For the same compound, the “AB_CL6188 MITC95” value in assay [2] is 4.688 µM. In addition, the “KP_CL6569 MITC95” value in assay [3] was determined as 0.3906 µM. In addition, the “EC_CLB30016 MITC95” value in assay [4] worked out at 6.25 µM.

Consider `CC1(C)[C@H](NC(=O)/C(=N\O[C@](C)(C(=O)O)[C@H]2CCc3cc(C(=N)N[C@H]4C[C@@](N)(C(O)CO)C4)ccc3O2)c2csc(N)n2)C(=O)N1OS(=O)(=O)O` (stereo partly drawn) [Compound 99, (S)-2-((R)-6-(N-((1R,3R)-3-amino-3-((R)-1,2-dihydroxyethyl)cyclobutyl)carbamimidoyl)chroman-2-yl)-2-((((Z)-1-(2-aminothiazol-4-yl)-2-(((S)-2,2-dimethyl-4-oxo-1-(sulfooxy)azetidin-3-yl)amino)-2-oxoethylidene)amino)oxy)propanoic acid], for which the “PA_CL5701 MITC95” value in assay [1] was found to be 3.125 µM. Besides, in assay [2], the “AB_CL6188 MITC95” value came to 12.5 µM. Further, the “KP_CL6569 MITC95” value in assay [3] turned out to be 0.7813 µM. Also, the “EC_CLB30016 MITC95” value in assay [4] came out at 6.25 µM.

`CC1(C)[C@H](NC(=O)/C(=N\O[C@](C)(C(=O)O)[C@H]2CCc3cc(C(=N)N[C@]4(C)CC[C@](N)(CO)CC4)ccc3O2)c2csc(N)n2)C(=O)N1OS(=O)(=O)O` [Compound 135, (S)-2-((R)-6-(N-((1r,4R)-4-amino-4-(hydroxymethyl)-1-methylcyclohexyl)-carbamimidoyl)chroman-2-yl)-2-((((Z)-1-(2-aminothiazol-4-yl)-2-(((S)-2,2-dimethyl-4-oxo-1-(sulfooxy)azetidin-3-yl)amino)-2-oxoethylidene)amino)oxy)propanoic acid]: in assay [1], the “PA_CL5701 MITC95” value came out at 3.125 µM. In assay [2], the “AB_CL6188 MITC95” value turned out to be 12.5 µM. The “KP_CL6569 MITC95” value in assay [3] came to 0.7813 µM.

As to `CC1(C)[C@H](NC(=O)/C(=N\O[C@](C)(C(=O)O)[C@H]2CCc3cc(C(=N)N[C@H]4C[C@H]5CC[C@@H](C4)N5)ccc3O2)c2csc(N)n2)C(=O)N1OS(=O)(=O)O` [Compound 136, (S)-2-((R)-6-(N-((1R,3r,5S)-8-azabicyclo[3.2.1]octan-3-yl)carbamimidoyl)chroman-2-yl)-2-((((Z)-1-(2-aminothiazol-4-yl)-2-(((S)-2,2-dimethyl-4-oxo-1-(sulfooxy)azetidin-3-yl)amino)-2-oxoethylidene)amino)oxy)propanoic acid], in assay [1], the “PA_CL5701 MITC95” value is 1.563 µM. Moreover, the “AB_CL6188 MITC95” value in assay [2] was 6.25 µM. Besides, the “KP_CL6569 MITC95” value in assay [3] was found to be 0.7813 µM.

The values above are taken from patent US20250019376A1, “CHROMANE AMIDINE MONOBACTAM ANTIBIOTICS” (priority 2021, published 2025).
